Experiment [1] deals with T1, Tyrosine-protein kinase JAK2 (Homo sapiens, UniProt O60674). The note with it: HEK293F, dose 100.0 µM.
The target of experiment [2] is T1, Tyrosine-protein kinase JAK2. As to the kind of experiment: biochemical.
A further experiment can be described thus: cells. Type of experiment: functional, tissue-based, UKE-1. The following applies: Homo sapiens, UKE1, 72 h.

These results are taken from ChEMBL document CHEMBL4706688 (J Med Chem, 2021).

SMILES strings stand for the structures.

T1 sequence (O60674 whole entry): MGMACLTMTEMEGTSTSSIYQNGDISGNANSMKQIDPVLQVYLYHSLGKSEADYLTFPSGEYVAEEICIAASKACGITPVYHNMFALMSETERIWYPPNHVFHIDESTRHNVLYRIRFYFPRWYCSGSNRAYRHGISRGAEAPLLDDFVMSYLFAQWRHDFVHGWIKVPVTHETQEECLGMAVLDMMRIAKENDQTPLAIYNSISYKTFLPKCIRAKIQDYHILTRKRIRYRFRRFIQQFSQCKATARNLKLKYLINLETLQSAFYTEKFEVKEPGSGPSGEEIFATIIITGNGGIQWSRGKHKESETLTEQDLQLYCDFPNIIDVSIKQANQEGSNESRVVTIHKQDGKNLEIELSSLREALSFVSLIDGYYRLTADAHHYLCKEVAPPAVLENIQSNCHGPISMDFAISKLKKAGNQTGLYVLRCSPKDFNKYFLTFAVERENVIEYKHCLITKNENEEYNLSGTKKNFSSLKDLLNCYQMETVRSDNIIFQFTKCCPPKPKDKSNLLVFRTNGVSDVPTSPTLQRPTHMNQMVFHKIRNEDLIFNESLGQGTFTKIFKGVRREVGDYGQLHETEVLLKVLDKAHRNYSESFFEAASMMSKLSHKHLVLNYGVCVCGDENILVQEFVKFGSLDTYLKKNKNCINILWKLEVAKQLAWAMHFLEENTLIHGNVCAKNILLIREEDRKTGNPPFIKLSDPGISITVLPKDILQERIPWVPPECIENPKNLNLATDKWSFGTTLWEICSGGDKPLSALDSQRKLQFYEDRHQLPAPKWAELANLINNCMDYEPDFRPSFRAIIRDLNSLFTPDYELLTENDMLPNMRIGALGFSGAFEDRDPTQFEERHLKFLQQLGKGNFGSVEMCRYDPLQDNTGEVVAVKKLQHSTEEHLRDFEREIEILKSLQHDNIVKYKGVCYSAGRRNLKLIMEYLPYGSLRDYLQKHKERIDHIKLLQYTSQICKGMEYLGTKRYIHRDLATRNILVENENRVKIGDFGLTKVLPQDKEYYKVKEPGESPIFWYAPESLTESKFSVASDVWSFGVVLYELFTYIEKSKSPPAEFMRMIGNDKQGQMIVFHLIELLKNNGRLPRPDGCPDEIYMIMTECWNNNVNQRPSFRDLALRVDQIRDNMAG

As for `N#CCC(C1CCCC1)n1cc(-c2nc(Nc3ccc(C4CCNCC4)cc3)nc3[nH]ccc23)cn1` (racemic), the ΔTm in experiment [1] turned out to be 11.8 °C. In experiment [2], the 50% inhibitory concentration (IC50) was less than 0.05 nM.

Turning to `Cc1cnc(Nc2ccc(C3CCN(C)CC3)c(F)c2)nc1Nc1ccc2c(c1)N(S(=O)(=O)C(C)(C)C)CC2`, in experiment [1], the ΔTm amounted to 4.3 °C. In the experiment “cells”, this compound returned an IC50 of 210 nM.

For the compound `N#CCCn1cc(-c2nc(Nc3ccc(C4CCNCC4)cc3)nc3[nH]ccc23)cn1`, in experiment [1], the ΔTm worked out at 7 °C. Moreover, the IC50 in “cells” worked out at 4500 nM.

On to `Cc1cnc(Nc2ccc(OCCN3CCCC3)cc2)nc1Nc1cccc(S(=O)(=O)NC(C)(C)C)c1` [FEDRATINIB], for which the IC50 in “cells” came out at 660 nM.

Turning to `N#CC[C@@H](C1CCCC1)n1cc(-c2nc(Nc3ccc(C4CCNCC4)cc3)nc3[nH]ccc23)cn1`, the ΔTm in experiment [1] was 8.3 °C.

Take `N#CC[C@H](C1CCCC1)n1cc(-c2nc(Nc3ccc(C4CCNCC4)cc3)nc3[nH]ccc23)cn1`: in experiment [1], the ΔTm stood at 12 °C.

Take `C=CCCn1cc(-c2nc(Nc3ccc(C4CCNCC4)cc3)nc3[nH]ccc23)cn1`: the ΔTm in experiment [1] was 6.4 °C. Inhibition in “cells” was half-maximal at 620 nM (IC50).

Consider `Cc1cnc(Nc2ccc(C3CCN(C)CC3)c(F)c2)nc1Nc1ccc(F)c(NS(=O)(=O)C(C)(C)C)c1`, for which, in experiment [1], the ΔTm was 3.1 °C. For the same compound, inhibition in the experiment “cells” was half-maximal at 200 nM (IC50).

Regarding `Cc1cnc(Nc2cc(F)c(C3CCN(C)CC3)c(F)c2)nc1Nc1ccc(F)c(NS(=O)(=O)C(C)(C)C)c1`, in experiment [1], the ΔTm worked out at 3.2 °C. In “cells”, this compound displayed an IC50 of 150 nM.

A word on the ΔTm: it is the shift of the melting midpoint relative to a reference. A word on the IC50: it is the concentration at which inhibition is half-maximal. A higher IC50 goes with lower potency.
